The assay deals with GCN2 kinase (Homo sapiens, UniProt Q9P2K8). As to the kind of experiment: GCN2 enzyme inhibition assay (Transcreener ADP2 fluorescence polarization). Format: biochemical. To be noted: compounds of Formula II; 280 μM ATP, 4 nM GCN2 kinase. The essentials: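 Human GCN2 (4 nM) preincubated 10 min with compound (0–8 μM) and 200 μM (RS)7 peptide in Tris-HCl pH 7.5, NaCl, MgCl2, DTT. Reaction started with 280 μM ATP, run 1 h at 25 °C. ADP detected by Transcreener fluorescence polarization. IC50 and Ki(app) fitted by tight-binding algorithm.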

The structures appear in SMILES notation. Bounds are passed on as bounds.

The text below walks through data of patent publication US10988477B2 (Merck Patent GmbH, priority 2018, dated 2021).

Chain of GCN2 kinase (Q9P2K8 whole entry): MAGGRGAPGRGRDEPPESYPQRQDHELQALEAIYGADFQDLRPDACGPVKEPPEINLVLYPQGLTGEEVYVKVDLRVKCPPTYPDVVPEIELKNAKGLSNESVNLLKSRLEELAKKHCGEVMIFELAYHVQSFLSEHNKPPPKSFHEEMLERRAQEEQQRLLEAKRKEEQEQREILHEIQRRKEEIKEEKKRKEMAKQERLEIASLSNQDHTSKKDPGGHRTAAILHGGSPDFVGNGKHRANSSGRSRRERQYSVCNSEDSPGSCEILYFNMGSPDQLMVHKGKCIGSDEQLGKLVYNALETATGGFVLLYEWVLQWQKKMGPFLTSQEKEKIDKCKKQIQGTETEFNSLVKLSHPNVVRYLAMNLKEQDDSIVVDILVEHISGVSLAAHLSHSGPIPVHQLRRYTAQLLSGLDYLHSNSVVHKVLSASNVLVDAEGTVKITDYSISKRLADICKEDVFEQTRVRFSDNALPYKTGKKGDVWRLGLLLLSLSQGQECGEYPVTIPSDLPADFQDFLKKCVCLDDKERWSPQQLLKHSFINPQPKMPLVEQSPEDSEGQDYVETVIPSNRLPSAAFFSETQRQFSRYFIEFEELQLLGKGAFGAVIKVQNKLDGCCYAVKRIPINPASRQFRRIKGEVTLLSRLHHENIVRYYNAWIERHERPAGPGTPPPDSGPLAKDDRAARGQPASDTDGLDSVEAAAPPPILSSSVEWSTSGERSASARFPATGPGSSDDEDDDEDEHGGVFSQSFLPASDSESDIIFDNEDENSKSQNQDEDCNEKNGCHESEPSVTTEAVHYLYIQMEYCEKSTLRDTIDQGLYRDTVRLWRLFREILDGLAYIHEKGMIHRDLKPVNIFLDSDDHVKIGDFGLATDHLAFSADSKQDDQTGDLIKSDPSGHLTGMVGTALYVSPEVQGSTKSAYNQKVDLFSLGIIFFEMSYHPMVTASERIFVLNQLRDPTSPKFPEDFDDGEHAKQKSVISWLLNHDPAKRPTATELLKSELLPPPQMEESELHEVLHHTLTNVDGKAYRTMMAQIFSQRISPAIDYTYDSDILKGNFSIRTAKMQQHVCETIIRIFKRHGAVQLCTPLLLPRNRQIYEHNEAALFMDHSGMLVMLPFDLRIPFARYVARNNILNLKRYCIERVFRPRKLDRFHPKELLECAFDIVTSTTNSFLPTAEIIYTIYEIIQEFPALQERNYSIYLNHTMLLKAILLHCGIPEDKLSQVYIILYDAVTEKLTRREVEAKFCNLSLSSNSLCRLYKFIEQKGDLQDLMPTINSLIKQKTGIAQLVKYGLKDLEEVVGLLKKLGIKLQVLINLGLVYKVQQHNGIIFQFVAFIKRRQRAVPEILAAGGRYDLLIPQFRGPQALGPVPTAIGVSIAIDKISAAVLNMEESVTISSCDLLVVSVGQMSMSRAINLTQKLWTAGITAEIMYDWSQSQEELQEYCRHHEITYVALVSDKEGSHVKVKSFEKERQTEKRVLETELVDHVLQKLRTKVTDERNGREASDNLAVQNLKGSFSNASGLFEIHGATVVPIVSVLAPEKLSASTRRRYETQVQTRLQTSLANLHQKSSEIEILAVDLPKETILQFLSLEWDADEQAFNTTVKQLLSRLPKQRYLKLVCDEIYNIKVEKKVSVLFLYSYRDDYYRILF

As to `CC1C(CCO)N(C)CCN1c1cc(-c2cnc3ccc(C(F)F)nn23)ncn1` (stereo not shown) [II-536, 2-(4-(6-(6-(Difluoromethyl)imidazo[1,2-b]pyridazin-3-yl)pyrimidin-4-yl)-1,3-dimethylpiperazin-2-yl)ethan-1-ol], the Ki lay in the range of 10 to 1000 nM.
The value for `CC(=O)N1CCC(c2cc(-c3cnc4ccc(C(F)F)nn34)ncn2)CC1` [II-539] was 10 to 1000 nM; that for `COCCOC1CC(CNS(C)(=O)=O)CN(c2cc(-c3cnc4ccc(C(F)F)nn34)ncn2)C1` (stereo not shown) [II-549, N-((1-(6-(6-(Difluoromethyl)imidazo[1,2-b]pyridazin-3-yl)pyrimidin-4-yl)-5-(2-methoxyethoxy)piperidin-3-yl)methyl)methanesulfonamide] was 10 to 1000 nM.
As to `COCCOC1CC(CNS(C)(=O)=O)CN(c2cc(-c3cnc4ccc(C(F)F)nn34)ncn2)C1` (stereo not shown) [II-550, N-((1-(6-(6-(Difluoromethyl)imidazo[1,2-b]pyridazin-3-yl)pyrimidin-4-yl)-5-(2-methoxyethoxy)piperidin-3-yl)methyl)methanesulfonamide], the Ki was < 10 nM.
In the case of `CC1CCC(NS(C)(=O)=O)CN1c1cc(-c2cnc3ccc(C(F)F)nn23)ncn1` (stereo not shown) [II-551, N-(1-(6-(6-(Difluoromethyl)imidazo[1,2-b]pyridazin-3-yl)pyrimidin-4-yl)-6-methylpiperidin-3-yl)methanesulfonamide] it was 10 to 1000 nM; in that of `CC1CCC(NS(C)(=O)=O)CN1c1cc(-c2cnc3ccc(C(F)F)nn23)ncn1` (stereo not shown) [II-552, N-(1-(6-(6-(Difluoromethyl)imidazo[1,2-b]pyridazin-3-yl)pyrimidin-4-yl)-6-methylpiperidin-3-yl)methanesulfonamide], 10 to 1000 nM; in that of `CC1C(CO)CCCN1c1cc(-c2cnc3ccc(C(F)F)nn23)ncn1` (stereo not shown) [II-554, (1-(6-(6-(Difluoromethyl)imidazo[1,2-b]pyridazin-3-yl)pyrimidin-4-yl)-2-methylpiperidin-3-yl)methanol], 10 to 1000 nM.
In the case of `CC1C(CO)CCCN1c1cc(-c2cnc3ccc(C(F)F)nn23)ncn1` (stereo not shown) [II-555, (1-(6-(6-(Difluoromethyl)imidazo[1,2-b]pyridazin-3-yl)pyrimidin-4-yl)-2-methylpiperidin-3-yl)methanol] it was 10 to 1000 nM; in that of `CC1C(CO)N(C(C)(C)C)CCN1c1cc(-c2cnc3ccc(C(F)F)nn23)ncn1` (stereo not shown) [II-556, (1-(tert-Butyl)-4-(6-(6-(difluoromethyl)imidazo[1,2-b]pyridazin-3-yl)pyrimidin-4-yl)-3-methylpiperazin-2-yl)methanol], 10 to 1000 nM; in that of `CC1C(CNS(C)(=O)=O)N(C(C)(C)C)CCN1c1cc(-c2cnc3ccc(C(F)F)nn23)ncn1` (stereo not shown) [II-559, N-((1-(tert-Butyl)-4-(6-(6-(difluoromethyl)imidazo[1,2-b]pyridazin-3-yl)pyrimidin-4-yl)-3-methylpiperazin-2-yl)methyl)methanesulfonamide], 10 to 1000 nM.
On to `CS(=O)(=O)NCC1CN(c2cc(-c3cnc4ccc(C(F)F)nn34)ncn2)C[C@@H]2CCCN12` (stereo partly drawn) [II-560, N-(((8aS)-2-(6-(6-(Difluoromethyl)imidazo[1,2-b]pyridazin-3-yl)pyrimidin-4-yl)octahydropyrrolo[1,2-a]pyrazin-4-yl)methyl)methanesulfonamide], for which the inhibition constant Ki was < 10 nM.
`[2H]C([2H])([2H])N1CCN(c2cc(-c3cnc4ccc(C(F)F)nn34)ncn2)C(C)C1CNS(C)(=O)=O` (stereo not shown) [II-561, N-((4-(6-(6-(Difluoromethyl)imidazo[1,2-b]pyridazin-3-yl)pyrimidin-4-yl)-3-methyl-1-(methyl-d3)piperazin-2-yl)methyl)methanesulfonamide]: the inhibition constant Ki fell in the range of 10 to 1000 nM.
The value for `[2H]C([2H])([2H])N1CCN(c2cc(-c3cnc4ccc(C(F)F)nn34)ncn2)C(C)C1CNS(C)(=O)=O` (stereo not shown) [II-562, N-((4-(6-(6-(Difluoromethyl)imidazo[1,2-b]pyridazin-3-yl)pyrimidin-4-yl)-3-methyl-1-(methyl-d3)piperazin-2-yl)methyl)methanesulfonamide] was < 10 nM.

The Ki is a dissociation constant, usually derived from enzyme kinetics or from competition with a known ligand. Read a high Ki as lower affinity.
